For five molecules, Km results are on record in PMC4470081, “Characterization of glutathione transferases involved in the pathogenicity of Alternaria brassicicola” (BMC Microbiology, 2015).

The term Km denotes the concentration of substrate that gives half-maximal velocity.

What all share (type): biochemical, Alternaria brassicicola
For assay [1], the system named is T1, AbGTT1.2.
T1 construct: E. coli BL21(DE3) pRARE
Briefly: GSH transferase, absorbance […] nm. The conditions noted are these: 3 mM GSH (table note; methods say 5 mM), phosphate pH 7.5.

Assay [2] relates to T2, AbGSTFuA1.
T2 construct: E. coli BL21(DE3) pRARE
Briefly: GSH transferase, absorbance […] nm. Conditions: 3 mM GSH (table note; methods say 5 mM), phosphate pH 7.5.

In assay [3] the test system is T3, AbUre2pB1.
T3 construct: E. coli BL21(DE3) pRARE
The experiment in a line: GSH transferase, absorbance […] nm. The conditions noted are these: 3 mM GSH (table note; methods say 5 mM), phosphate pH 7.5.

Assay [4] deals with T2, AbGSTFuA1. Briefly: GSH transferase, absorbance […] nm. The conditions noted are these: 3 mM GSH (table note; methods say 5 mM), pH 6.5.
The subject of assay [5] is T3, AbUre2pB1. The experiment in a line: peroxidase, glutathione reductase/NADPH coupled, […] nm. Conditions: 3 mM GSH (table note; methods say 2 mM), Tris-HCl pH 8.0.
The test system of assay [6] is T1, AbGTT1.2. The description is as above. The conditions noted are these: 3 mM GSH (table note; methods say 2 mM), Tris-HCl pH 8.0.

Take `O=[N+]([O-])c1ccc(Cl)c([N+](=O)[O-])c1` [CDNB, 1-chloro-2,4-dinitrobenzene]: the Km in the assay on AbGTT1.2 [1] was determined as 1820 ± 330 µM; in the assay with AbGSTFuA1 [2], 400 ± 20 µM; in the assay on AbUre2pB1 [3], 5010 ± 400 µM.

For `S=C=NCc1ccccc1` [Bz-ITC], the Km in the assay with AbGSTFuA1 [4] is 180 ± 30 µM. With `S=C=NCCc1ccccc1` [Ph-ITC], the Michaelis-Menten constant (Km) with AbGSTFuA1 [4] stood at 110 ± 20 µM. Turning to `C=CCN=C=S` [Al-ITC], the Michaelis constant (Km) in the assay with AbGSTFuA1 [4] was determined as 120 ± 20 µM. `CC(C)(OO)c1ccccc1` [Cu-OOH]: the Km was found to be 770 ± 60 µM in the assay on AbUre2pB1 [5] and 120 ± 40 µM in the assay on AbGTT1.2 [6].
